Experimental data published in US7064124B2, “NF-κB inhibitor containing substituted benzoic acid derivative as active ingredient” (Daiichi Suntory Pharma Co., Ltd., priority 2001, dated 2006).

| SMILES | melting point [°C] |
| --- | --- |
| COC1=C(OC)C(=O)C(Cc2ccc(OC(C)=O)c(C(=O)Nc3ccccc3[N+](=O)[O-])c2)=C(C)C1=O [Example 153, N-[5-(5,6-Dimethoxy-3-methyl-1,4-benzoquinon-2-yl)methyl-2-acetoxybenzoyl]-2-nitroaniline] | 97.5 to 100 |
| COC1=C(OC)C(=O)C(Cc2ccc(OC(C)=O)c(C(=O)Nc3ccccn3)c2)=C(C)C1=O [Example 155, N-(Pyridin-2-yl)-5-(5,6-dimethoxy-3-methyl-1,4-benzoquinon-2-yl)methyl-2-acetoxybenzamide] | 124 to 126.5 |
| COC1=C(OC)C(=O)C(Cc2ccc(OC(C)=O)c(C(=O)NC3CC3)c2)=C(C)C1=O [Example 159, N-Cyclopropyl-5-(5,6-dimethoxy-3-methyl-1,4-benzoquinon-2-yl)methyl-2-acetoxybenzamide] | 95.5 to 98 |
| COC1=C(OC)C(=O)C(Cc2ccc(OC(C)=O)c(C(=O)NC3CCCCC3)c2)=C(C)C1=O [Example 161, N-Cyclohexyl-5-(5,6-dimethoxy-3-methyl-1,4-benzoquinon-2-yl)methyl-2-acetoxybenzamide] | 137.5 to 140 |
| COC1=C(OC)C(=O)C(Cc2cccc(C(=O)Nc3ccc(C(F)(F)F)cc3)c2OC(C)=O)=C(C)C1=O [Example 165, N-[3-(5,6-Dimethoxy-3-methyl-1,4-benzoquinon-2-yl)methyl-2-acetoxybenzoyl]-4-trifluoromethylaniline] | 163 to 166 |
| COC1=C(OC)C(=O)C(Cc2ccc(OCc3cccnc3)c(C(=O)NC3CC3)c2)=C(C)C1=O [Example 170, N-Cyclopropyl-5-(5,6-dimethoxy-3-methyl-1,4-benzoquinon-2-yl)methyl-2-(3-pyridylmethyloxy)benzamide] | 87 to 89.5 |
| COC1=C(OC)C(=O)C(Cc2cccc(C(=O)Nc3ccc(S(=O)(=O)C(F)(F)F)cc3)c2OC(C)=O)=C(C)C1=O [Example 175, N-[3-(5,6-Dimethoxy-3-methyl-1,4-benzoquinon-2-yl)methyl-2-acetoxybenzoyl]-4-(trifluoromethylsulfonyl)aniline] | 87 to 89 |
| COC1=C(OC)C(=O)C(Cc2cccc(C(=O)Nc3ccc(Cl)cc3Cl)c2O)=C(C)C1=O [Example 177, N-[3-(5,6-Dimethoxy-3-methyl-1,4-benzoquinon-2-yl)methyl-2-hydroxybenzoyl]-2,4-dichloroaniline] | 147 to 150 |
| COC1=C(OC)C(=O)C(Cc2cccc(C(=O)Nc3ccc(N4CCOCC4)cc3)c2OC(C)=O)=C(C)C1=O [Example 178, N-[3-(5,6-Dimethoxy-3-methyl-1,4-benzoquinon-2-yl)methyl-2-acetoxybenzoyl]-4-morpholinoaniline] | 168 to 171 |
| COC1=C(OC)C(=O)C(Cc2ccc(OC(C)=O)c(C(=O)Nc3ccc(C(=O)O)cc3)c2)=C(C)C1=O [Example 189, N-[5-(5,6-Dimethoxy-3-methyl-1,4-benzoquinon-2-yl)methyl-2-acetoxybenzoyl]-4-aminobenzoic acid] | 199 to 201.5 |
| COC1=C(OC)C(=O)C(Cc2ccc(OC(C)=O)c(C(=O)Nc3ncccc3C(=O)O)c2)=C(C)C1=O [Example 194, N-(3-Hydroxycarbonylpyridin-2-yl)-5-(5,6-dimethoxy-3-methyl-1,4-benzoquinon-2-yl)methyl-2-acetoxybenzamide] | 148 to 151 |
| COC1=C(OC)C(=O)C(Cc2ccc(OC(C)=O)c(C(=O)Nc3ccc(C(=O)O)cn3)c2)=C(C)C1=O [Example 197, N-(5-Hydroxycarbonylpyridin-2-yl)-5-(5,6-dimethoxy-3-methyl-1,4-benzoquinon-2-yl)methyl-2-acetoxybenzamide] | 123 to 125 |
| COC1=C(OC)C(=O)C(Cc2ccc(OC(C)=O)c(C(=O)Nc3cccnc3OC)c2)=C(C)C1=O [Example 215, N-(2-Methoxypyridin-3-yl)-5-(5,6-dimethoxy-3-methyl-1,4-benzoquinon-2-yl)methyl-2-acetoxybenzamide] | 111 to 112 |
| COC1=C(OC)C(=O)C(Cc2ccc(OC(C)=O)c(C(=O)Nc3cc(OC)ccc3OC)c2)=C(C)C1=O [Example 219, N-[5-(5,6-Dimethoxy-3-methyl-1,4-benzoquinon-2-yl)methyl-2-acetoxybenzoyl]-2,5-dimethoxyaniline] | 118.5 to 120 |
| COC1=C(OC)C(=O)C(Cc2ccc(OC(C)=O)c(C(=O)Nc3ccnc(OC)c3)c2)=C(C)C1=O [Example 230, N-(2-Methoxypyridin-4-yl)-5-(5,6-dimethoxy-3-methyl-1,4-benzoquinon-2-yl)methyl-2-acetoxybenzamide] | 138 to 140.5 |

Next, values leading:

| melting point [°C] | SMILES |
| --- | --- |
| 127.5 to 130 | COC1=C(OC)C(=O)C(Cc2ccc(O)c(C(=O)Nc3cccc(C(F)(F)F)c3)c2)=C(C)C1=O [Example 152, N-[5-(5,6-Dimethoxy-3-methyl-1,4-benzoquinon-2-yl)methyl-2-hydroxybenzoyl]-3-trifluoromethylaniline] |
| 155 to 156 | COC1=C(OC)C(=O)C(Cc2ccc(O)c(C(=O)Nc3ccccc3[N+](=O)[O-])c2)=C(C)C1=O [Example 154, N-[5-(5,6-Dimethoxy-3-methyl-1,4-benzoquinon-2-yl)methyl-2-hydroxybenzoyl]-2-nitroaniline] |
| 180 to 183 | COC1=C(OC)C(=O)C(Cc2ccc(O)c(C(=O)Nc3ccccn3)c2)=C(C)C1=O [Example 156, N-(Pyridin-2-yl)-5-(5,6-dimethoxy-3-methyl-1,4-benzoquinon-2-yl)methyl-2-hydroxybenzamide] |
| 111 to 112 | COC1=C(OC)C(=O)C(Cc2ccc(O)c(C(=O)NC3CC3)c2)=C(C)C1=O [Example 160, N-Cyclopropyl-5-(5,6-dimethoxy-3-methyl-1,4-benzoquinon-2-yl)methyl-2-hydroxybenzamide] |
| 107 to 109 | COC1=C(OC)C(=O)C(Cc2ccc(O)c(C(=O)NC3CCCCC3)c2)=C(C)C1=O [Example 162, N-Cyclohexyl-5-(5,6-dimethoxy-3-methyl-1,4-benzoquinon-2-yl)methyl-2-hydroxybenzamide] |
| 129 to 131.5 | COC1=C(OC)C(=O)C(Cc2cccc(C(=O)Nc3ccc(C(F)(F)F)cc3)c2O)=C(C)C1=O [Example 166, N-[3-(5,6-Dimethoxy-3-methyl-1,4-benzoquinon-2-yl)methyl-2-hydroxybenzoyl]-4-trifluoromethylaniline] |
| 83 to 85.5 | CCOC(=O)c1ccc(NC(=O)c2cc(CC3=C(C)C(=O)C(OC)=C(OC)C3=O)ccc2OCc2cccnc2)cc1 [Example 167, Ethyl N-[5-(5,6-dimethoxy-3-methyl-1,4-benzoquinon-2-yl)methyl-2-(3-pyridylmethyloxy)benzoyl]-4-aminobenzoate] |
| 116 to 119 | COC1=C(OC)C(=O)C(Cc2ccc(OCc3cccnc3)c(C(=O)Nc3ccncc3)c2)=C(C)C1=O [Example 168, N-(Pyridin-4-yl)-5-(5,6-dimethoxy-3-methyl-1,4-benzoquinon-2-yl)methyl-2-(3-pyridylmethyloxy)benzamide] |
| 135 to 137 | COC1=C(OC)C(=O)C(Cc2ccc(OCc3cccnc3)c(C(=O)Nc3cccnc3)c2)=C(C)C1=O [Example 169, N-(Pyridin-3-yl)-5-(5,6-dimethoxy-3-methyl-1,4-benzoquinon-2-yl)methyl-2-(3-pyridylmethyloxy)benzamide] |
| 173 to 176 | COC1=C(OC)C(=O)C(Cc2ccc(OCc3cccnc3)c(C(=O)Nc3ccc(C(F)(F)F)cc3)c2)=C(C)C1=O [Example 172, N-[5-(5,6-Dimethoxy-3-methyl-1,4-benzoquinon-2-yl)methyl-2-(3-pyridylmethyloxy)benzoyl]-4-trifluoromethylaniline] |
| 177.5 to 180.5 | COC1=C(OC)C(=O)C(Cc2cccc(C(=O)Nc3ccc(N4CCOCC4)cc3)c2O)=C(C)C1=O [Example 179, N-[3-(5,6-Dimethoxy-3-methyl-1,4-benzoquinon-2-yl)methyl-2-hydroxybenzoyl]-4-morpholinoaniline] |
| 119 to 121.5 | COC1=C(OC)C(=O)C(Cc2ccc(O)c(C(=O)Nc3ccc(OC)nc3OC)c2)=C(C)C1=O [Example 183, N-(2,6-Dimethoxypyridin-3-yl)-5-(5,6-dimethoxy-3-methyl-1,4-benzoquinon-2-yl)methyl-2-hydroxybenzamide] |
| 257 to 260 | COC1=C(OC)C(=O)C(Cc2ccc(O)c(C(=O)Nc3ccc(C(=O)O)cc3)c2)=C(C)C1=O [Example 190, N-[5-(5,6-Dimethoxy-3-methyl-1,4-benzoquinon-2-yl)methyl-2-hydroxybenzoyl]-4-aminobenzoic acid] |
| 138 to 141 | COC1=C(OC)C(=O)C(Cc2ccc(O)c(C(=O)Nc3c(Cl)cc(OC(F)(F)F)cc3Cl)c2)=C(C)C1=O [Example 192, N-[5-(5,6-Dimethoxy-3-methyl-1,4-benzoquinon-2-yl)methyl-2-hydroxybenzoyl]-2,6-dichloro-4-trifluoromethoxyaniline] |
| 134 to 136.5 | COC1=C(OC)C(=O)C(Cc2ccc(O)c(C(=O)Nc3ncccc3C(=O)O)c2)=C(C)C1=O [Example 195, N-(3-Hydroxycarbonylpyridin-2-yl)-5-(5,6-dimethoxy-3-methyl-1,4-benzoquinon-2-yl)methyl-2-hydroxybenzamide] |
| 238 to 241 | COC1=C(OC)C(=O)C(Cc2ccc(O)c(C(=O)Nc3ccc(C(=O)O)cn3)c2)=C(C)C1=O [Example 198, N-(5-Hydroxycarbonylpyridin-2-yl)-5-(5,6-dimethoxy-3-methyl-1,4-benzoquinon-2-yl)methyl-2-hydroxybenzamide] |
| 119 to 121.5 | COC1=C(OC)C(=O)C(Cc2ccc(O)c(C(=O)Nc3ccc(-n4ccnc4)cc3)c2)=C(C)C1=O [Example 209, N-[5-(5,6-Dimethoxy-3-methyl-1,4-benzoquinon-2-yl)methyl-2-hydroxybenzoyl]-4-(imidazol-1-yl)aniline] |
| 182 to 185.5 | COC1=C(OC)C(=O)C(Cc2ccc(O)c(C(=O)Nc3ccc(-c4ccn[nH]4)cc3)c2)=C(C)C1=O [Example 211, N-[5-(5,6-Dimethoxy-3-methyl-1,4-benzoquinon-2-yl)methyl-2-hydroxybenzoyl]-4-(1H-pyrazol-3-yl)aniline] |
